We go through ten compounds from ChEMBL document CHEMBL4304815, “Photoswitchable Inhibitor of the Calcium Channel TRPV6” (ACS Med Chem Lett, 2019).

Calls of active or inactive are those of the source. The rule behind the calls is not given here.

For data set [1], the target named is T1, Transient receptor potential cation channel subfamily V member 6 (Homo sapiens) (UniProt Q9H1D0).
T1 sequence (whole entry): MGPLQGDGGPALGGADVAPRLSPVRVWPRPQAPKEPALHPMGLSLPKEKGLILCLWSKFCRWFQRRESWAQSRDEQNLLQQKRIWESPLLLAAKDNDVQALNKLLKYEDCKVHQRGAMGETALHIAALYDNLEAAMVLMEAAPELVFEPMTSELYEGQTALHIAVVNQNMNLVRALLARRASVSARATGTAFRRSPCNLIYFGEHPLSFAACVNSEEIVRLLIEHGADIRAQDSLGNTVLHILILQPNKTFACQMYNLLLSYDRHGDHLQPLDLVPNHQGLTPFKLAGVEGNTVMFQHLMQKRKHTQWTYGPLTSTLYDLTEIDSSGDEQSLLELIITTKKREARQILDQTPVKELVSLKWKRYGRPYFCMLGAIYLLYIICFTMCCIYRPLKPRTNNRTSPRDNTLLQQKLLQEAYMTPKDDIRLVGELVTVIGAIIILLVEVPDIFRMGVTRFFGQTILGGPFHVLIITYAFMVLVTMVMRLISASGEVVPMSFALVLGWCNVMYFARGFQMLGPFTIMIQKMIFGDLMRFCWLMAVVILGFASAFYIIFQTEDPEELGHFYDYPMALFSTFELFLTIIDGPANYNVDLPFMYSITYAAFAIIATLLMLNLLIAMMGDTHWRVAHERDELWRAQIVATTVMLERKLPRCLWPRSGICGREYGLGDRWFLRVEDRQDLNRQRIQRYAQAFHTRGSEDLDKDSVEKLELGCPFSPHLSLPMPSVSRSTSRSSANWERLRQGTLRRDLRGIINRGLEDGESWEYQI
The data set can be described thus: Inhibition of human peTFP-C1-TRPV6 expressed in HEK293 cells assessed as decrease in whole cell inward calcium current density at 10 uM at 50 mV holding potential by patch clamp assay. Format: cell-based.

Data set [2] addresses T1, Transient receptor potential cation channel subfamily V member 6 (Homo sapiens). The experiment in a line: Inhibition of human TRPV6 expressed in HEK293 cells assessed as reduction of Cd2+ influx at 10 uM preincubated for 5 mins followed by CdCl2 addition measured under dark state by calcium-5 fluorescence dye-based FLIPR assay relative to control. Format: cell-based.
Data set [3] is described as follows: Drug isomerization in DMSO assessed as Z isomer level at 500 uM incubated for 48 hrs in dark by RP-UHPLC analysis.
Data set [4] in a line: Drug isomerization in DMSO assessed as Z isomer level at 500 uM irradiated with UV light at 365 nm for 5 mins measured immediately by RP-UHPLC analysis.
Data set [5] deals with T2, Transient receptor potential cation channel subfamily V member 6 (Homo sapiens, UniProt Q9H1D0).
T2 sequence (Q9H1D0 whole entry): T1 sequence (whole entry)
The data set can be described thus: Inhibition of human TRPV6 expressed in HEK293 cells assessed as reduction of Cd2+ influx preincubated for 5 mins followed by CdCl2 addition measured under dark state by calcium-5 fluorescence dye-based FLIPR assay. Format: cell-based.

A short description of data set [6]: Stability in DMSO assessed as parent compound remaining at 500 uM irradiated with UV light at 365 nm for 5 mins measured immediately by RP-UHPLC analysis.
Data set [7] can be described thus: Solubility of the compound in DMSO/buffer at >10 uM. It counts as physicochemical.
A short description of data set [8]: Drug isomerization in DMSO assessed as Z isomer level by measuring maximum absorbance at 500 uM irradiated with UV light at 365 nm for 5 mins measured immediately by UV-vis spectra analysis.
A short description of data set [9]: Stability in DMSO assessed as parent compound remaining at 500 uM incubated for 48 hrs in dark by RP-UHPLC analysis. Format: physicochemical. As to conditions: read-out: Stability.
Data set [10] is described as follows: Drug isomerization in DMSO assessed as Z isomer level at 500 uM irradiated with UV light at 365 nm for 5 mins measured immediately by UV-vis spectra analysis.
A short description of data set [11]: Thermal isomerization of the compound in DMSO assessed as E isomer level at 500 uM preincubated for 48 hrs under dark condition followed by irradiated with UV light at 365 nm for 5 mins and subsequent irradiation with UV light at 470 nm for 5 mins measured immediately by UV-Vis spectroscopy.
Data set [12] deals with T1, Transient receptor potential cation channel subfamily V member 6 (Homo sapiens). The data set can be described thus: Inhibition of human YFP-fused TRPV6 expressed in HEK293 cells assessed as decrease in whole cell inward calcium current density at 10 uM at 50 mV holding potential pre-irradiated with 365 nm UV-light followed by […] irradiation by patch clamp assay. It counts as cell-based.

Data set [13] deals with T2, Transient receptor potential cation channel subfamily V member 6. The data set can be described thus: Inhibition of human TRPV6 expressed in HEK293 cells assessed as reduction in Cd2+ influx preincubated for 5 mins followed by CdCl2 addition using 365 nm UV-light irradiated compound by calcium-5 fluorescence dye-based FLIPR assay. It counts as cell-based.
The target of data set [14] is T1, Transient receptor potential cation channel subfamily V member 6 (Homo sapiens). The experiment in a line: Inhibition of human YFP-fused TRPV6 expressed in HEK293 cells assessed as decrease in whole cell inward calcium current density at 10 uM at 50 mV holding potential under 365 nm UV-light irradiation by patch clamp assay. It counts as cell-based. In general terms: In patch-clamp work, channel activity is measured electrically.

The nature of data set [15]: Half life of the compound in DMSO assessed as thermal isomerization by measuring E isomer level at 500 uM incubated for 48 hrs under dark condition by UV-Vis spectroscopy. Format: physicochemical.
The target of data set [16] is T1, Transient receptor potential cation channel subfamily V member 6 (Homo sapiens). The experiment in a line: Inhibition of human TRPV6 expressed in HEK293 cells assessed as reduction in Cd2+ influx at 10 uM preincubated for 5 mins followed by CdCl2 addition using 365 nm UV-light irradiated compound by calcium-5 fluorescence dye-based FLIPR assay. Format: cell-based.

The term inhibition denotes the relative decrease from the control value, in per cent. For orientation: IC50 means the midpoint of a concentration-inhibition curve. In the case of `c1ccc(/N=N/c2ccc(CN3CCN([C@H]4CC[C@@H](c5ccccc5)CC4)CC3)cc2)cc1`, the inhibition result in data set [1] is “Active”. For the same compound, the inhibition in data set [2] came to 13%. In addition, the Z isomer level in data set [3] was determined as 3%; in [4], 75%. The IC50 in data set [5] is more than 10000 nM. Moreover, the Stability in [6] was found to be 25%. Moreover, the solubility entry in data set [7] is “Insoluble”. The Activity in [8] lay within 400 to 500 nm. The remaining at 48 h, 500 µM in data set [9] stood at 97%.

Regarding `c1ccc(/N=N/c2ccc(CN3CCN([C@H]4CC[C@@H](c5ccccc5)CC4)CC3)cn2)cc1`, in data set [2], the inhibition is 70%. Further, the Z isomer level in [3] came to 0%; in data set [4], 50%. Moreover, the IC50 in data set [5] came to 600 nM. In addition, the Stability in data set [6] is 50%. For the same compound, the solubility result in [7] is recorded as “Insoluble”. Further, the Activity in data set [8] lay in the range of 400 to 500 nm. For the same compound, the remaining at 48 h, 500 µM in data set [9] came to 100%.

Turning to `c1ccc([C@H]2CC[C@@H](N3CCN(c4ccc(/N=N/c5cccnc5)cc4)CC3)CC2)cc1`, the Drug metabolism entry in data set [10] was “Metabolite not detected”. The Z isomer level in data set [3] and in data set [4] was 0% each time. In addition, the Stability in data set [6] came out at 100%. Also, in data set [7], the solubility result is recorded as “Insoluble”. The remaining at 48 h, 500 µM in data set [9] stood at 100%.

In the case of `c1ccc(/N=N\c2ccc(N3CCN([C@H]4CC[C@@H](c5ccccc5)CC4)CC3)cc2)cc1`, in data set [11], the Drug metabolism entry is reported as “Metabolite detected”.

Take `c1ccc([C@H]2CC[C@@H](N3CCN(c4ccc(/N=N\c5cccnc5)cc4)CC3)CC2)cc1`: the Drug metabolism entry in data set [11] is given as “Metabolite detected”.

What is called half-life is how long it takes for the measured level to halve. In the case of `c1ccc(/N=N\c2ccc(CN3CCN([C@H]4CC[C@@H](c5ccccc5)CC4)CC3)cc2)cc1`, the inhibition result in data set [12], in data set [14] and in data set [16] was “Active” each time. The Drug metabolism result in data set [11] is “Metabolite detected”. The IC50 in data set [13] was determined as 1700 nM. For the same compound, the half-life at 500 µM in [15] is 93.6 h.

For the compound `c1ccc(/N=N\c2ccc(N3CCN([C@H]4CC[C@@H](c5ccccc5)CC4)CC3)cn2)cc1`, in data set [15], the half-life at 500 µM is 0.137 h. Further, the inhibition entry in data set [16] is “Active”.

For the compound `c1ccc(/N=N/c2ccc(N3CCN([C@H]4CC[C@@H](c5ccccc5)CC4)CC3)cn2)cc1`, the inhibition in data set [2] was 30%. Moreover, in data set [10], the Drug metabolism result is on record as “Metabolite not detected”. Also, the Z isomer level in data set [3] was determined as 0%; in data set [4] it was 12%. Also, in data set [6], the Stability is 88%. Further, in data set [7], the solubility result was “Insoluble”. Also, the remaining at 48 h, 500 µM in [9] was found to be 100%.

Regarding `c1ccc(/N=N/c2ccc(N3CCN([C@H]4CC[C@@H](c5ccccc5)CC4)CC3)cc2)cc1`, the Drug metabolism result in data set [10] was “Metabolite not detected”. Moreover, the Z isomer level in data set [3] and in [4] was 7% each time. The Stability in data set [6] was found to be 93%. Moreover, the solubility result in data set [7] is “Insoluble”. In addition, the remaining at 48 h, 500 µM in [9] came to 93%.

`c1ccc(/N=N\c2ccc(CN3CCN([C@H]4CC[C@@H](c5ccccc5)CC4)CC3)cn2)cc1`: the IC50 in data set [13] came out at 600 nM. Besides, the half-life at 500 µM in data set [15] was 3.7 h. Further, the inhibition result in data set [16] is “Active”.
